# Active and inactive are the calls of the source. No cut-off for these calls is given here.
# Tests used:
# Mus musculus [1] = experiment: Antioxidant activity in KM mouse assessed as increase in CAT level in plasma at 1.65 mmol/Kg, IG administered via gavage measured for 1 month; format: functional, organism-based; conditions: time 1.0 months
# [2] = Hepatotoxicity in KM mouse assessed as reduction in plasma ALT level at 1.65 mmol/Kg, IG administered via gavage measured for 1 month by automated biochemical analyzer; format: toxicity; conditions: in vivo, po, 730 h, time 1 months
# Mus musculus [3] = experiment: Upregulation of HO-1 protein expression in liver of KM mouse at 1.65 mmol/Kg, IG administered via gavage measured after 1 month by Western blot analysis; format: functional; conditions: time 1.0 months
# [4] = Hepatotoxicity in KM mouse assessed as reduction in plasma ALP level at 1.65 mmol/Kg, IG administered via gavage measured for 1 month by automated biochemical analyzer; format: toxicity; conditions: in vivo, po, 730 h, time 1 months
# Mus musculus [5] = experiment: Antioxidant activity in KM mouse assessed as increase in SOD level in plasma at 1.65 mmol/Kg, IG administered via gavage measured for 1 month; format: functional, organism-based; conditions: time 1.0 months
# [6] = Hepatotoxicity in KM mouse assessed as reduction in total bilirubin level in plasma at 1.65 mmol/Kg, IG administered via gavage measured for 1 month by automated biochemical analyzer; format: toxicity; conditions: po, 730 h, time 1 months
# Mus musculus [7] = experiment: Antioxidant activity in KM mouse assessed as reduction in MDA level in plasma at 1.65 mmol/Kg, IG administered via gavage measured for 1 month; format: functional, organism-based; conditions: time 1.0 months
# Mus musculus [8] = experiment: Antioxidant activity in KM mouse assessed as increase in GSH level in plasma at 1.65 mmol/Kg, IG administered via gavage measured for 1 month; format: functional, organism-based; conditions: time 1.0 months
# [9] = Hepatotoxicity in KM mouse assessed as reduction in plasma AST level at 1.65 mmol/Kg, IG administered via gavage measured for 1 month by automated biochemical analyzer; format: toxicity; conditions: in vivo, po, 730 h, time 1 months
# Mus musculus [10] = experiment: Hepatoprotective activity in KM mouse assessed as improvement in hepatocyte injury at 1.65 mmol/Kg, IG administered via gavage by H and E staining based analysis; format: functional, organism-based
# [11] = Hepatotoxicity in KM mouse assessed as nuclear degeneration at 1.65 mmol/Kg, IG administered via gavage by H and E staining based analysis; format: toxicity; conditions: in vivo, po
# Mus musculus [12] = experiment: Upregulation of Nrf2 protein expression in liver of KM mouse at 1.65 mmol/Kg, IG administered via gavage measured after 1 month by Western blot analysis; format: functional; conditions: time 1.0 months
# Mus musculus [13] = experiment: Antiinflammatory activity in KM mouse assessed as downregulation of IL-6 expression in liver tissue at 1.65 mmol/Kg, IG administered via gavage measured for 1 month by Western blot analysis; format: functional, organism-based; conditions: time 1.0 months
# [14] = Hepatotoxicity in KM mouse assessed as appearance of loose cytoplasm at 1.65 mmol/Kg, IG administered via gavage by H and E staining based analysis; format: toxicity; conditions: in vivo, po
# [15] = Hepatotoxicity in KM mouse assessed as effect on liver weight at 1.65 mmol/Kg, IG administered via gavage measured for 1 month; format: toxicity, tissue-based; conditions: in vivo, po, 730 h, time 1 months
# [16] = Toxicity in KM mouse assessed as reduction in body weight at 1.65 mmol/Kg, IG administered via gavage measured for 1 month; conditions: in vivo, po, 730 h, time 1 months
# Mus musculus [17] = experiment: Hypolipidemic activity in Triton-WR-1339 induced hyperlipidemic KM mouse model assessed as reduction in plasma TG level administered intragastrically via gavage for 7 days; format: functional, organism-based; conditions: dose 0.029-0.267 mmol/Kg, route ig, time 7.0 day, DDE = dose-dependent effect
# Mus musculus [18] = experiment: Hypolipidemic activity in Triton-WR-1339 induced hyperlipidemic KM mouse model assessed as reduction in plasma TC level administered intragastrically via gavage for 7 days; format: functional, organism-based; conditions: dose 0.029-0.267 mmol/Kg, route ig, time 7.0 day, DDE = dose-dependent effect
# [19] = Hepatotoxicity in KM mouse assessed as infiltration of inflammatory cells at 1.65 mmol/Kg, IG administered via gavage by H and E staining based analysis; format: toxicity; conditions: in vivo, po
# Mus musculus [20] = experiment: Antiinflammatory activity in KM mouse assessed as downregulation of TNF-alpha expression in liver tissue at 1.65 mmol/Kg, IG administered via gavage measured for 1 month by Western blot analysis; format: functional, organism-based; conditions: time 1.0 months
# [21] = Hepatotoxicity in KM mouse assessed as reduction in liver coefficient at 1.65 mmol/Kg, IG administered via gavage measured for 1 month; format: toxicity, tissue-based; conditions: in vivo, po, 730 h, time 1 months
# Mus musculus [22] = experiment: Downregulation of p-NF-kappaB p65 protein expression in liver of KM mouse at 1.65 mmol/Kg, IG administered via gavage measured after 1 month by Western blot analysis; format: functional; conditions: time 1.0 months
# Mus musculus [23] = experiment: Induction of inflammation in KM mouse assessed as upregulation of TNF-alpha expression in liver tissue at 1.65 mmol/Kg, IG administered via gavage measured for 1 month by Western blot analysis; format: functional; conditions: time 1.0 months
# Mus musculus [24] = experiment: Induction of oxidative stress in KM mouse assessed as increase in MDA level in plasma at 1.65 mmol/Kg, IG administered via gavage measured for 1 month; format: functional, organism-based; conditions: time 1.0 months
# Mus musculus [25] = experiment: Induction of oxidative stress in KM mouse assessed as reduction in CAT level in plasma at 1.65 mmol/Kg, IG administered via gavage measured for 1 month; format: functional, organism-based; conditions: time 1.0 months
# Mus musculus [26] = experiment: Induction of oxidative stress in KM mouse assessed as reduction in SOD level in plasma at 1.65 mmol/Kg, IG administered via gavage measured for 1 month; format: functional, organism-based; conditions: time 1.0 months
# Mus musculus [27] = experiment: Induction of inflammation in KM mouse assessed as upregulation of IL-6 expression in liver tissue at 1.65 mmol/Kg, IG administered via gavage measured for 1 month by Western blot analysis; format: functional; conditions: time 1.0 months
# Mus musculus [28] = experiment: Upregulation of p-NF-kappaB p65 protein expression in liver of KM mouse at 1.65 mmol/Kg, IG administered via gavage measured after 1 month by Western blot analysis; format: functional; conditions: time 1.0 months
# Mus musculus [29] = experiment: Induction of oxidative stress in KM mouse assessed as reduction in GSH level in plasma at 1.65 mmol/Kg, IG administered via gavage measured for 1 month; format: functional, organism-based; conditions: time 1.0 months
# [30] = Hepatotoxicity in KM mouse assessed as large areas of hepatocytes swelling at 1.65 mmol/Kg, IG administered via gavage by H and E staining based analysis; format: toxicity; conditions: in vivo, po
# [31] = Hepatotoxicity in KM mouse assessed as blurred edge dissolution at 1.65 mmol/Kg, IG administered via gavage by H and E staining based analysis; format: toxicity; conditions: in vivo, po
structure (smiles),measurement,setting,value
CC(C)(Oc1ccc(Cl)cc1)C(=O)Oc1ccc(-c2cc(=S)ss2)cc1,Activity,Mus musculus [1],Active
same,Activity,[2],Non-Toxic
same,Activity,Mus musculus [3],Active
same,Activity,[4],Non-Toxic
same,Activity,Mus musculus [5],Active
same,Activity,[6],Non-Toxic
same,Activity,Mus musculus [7],Active
same,Activity,Mus musculus [8],Active
same,Activity,[9],Non-Toxic
same,Activity,Mus musculus [10],Active
same,Activity,[11],Non-Toxic
same,Activity,Mus musculus [12],Active
same,Activity,Mus musculus [13],Active
same,Activity,[14],Non-Toxic
same,Activity,[15],Non-Toxic
same,Activity,[16],Non-Toxic
same,Activity,Mus musculus [17],Dde
same,Activity,Mus musculus [18],Dde
same,Activity,[19],Non-Toxic
same,Activity,Mus musculus [20],Active
same,Activity,[21],Non-Toxic
same,Activity,Mus musculus [22],Active
CCOC(=O)C(C)(C)Oc1ccc(Cl)cc1 [CLOFIBRATE],Activity,[2],Toxic
same,Activity,Mus musculus [23],Active
same,Activity,Mus musculus [24],Active
same,Activity,[4],Toxic
same,Activity,Mus musculus [25],Active
same,Activity,Mus musculus [26],Active
same,Activity,Mus musculus [27],Active
same,Activity,[6],Toxic
same,Activity,[9],Toxic
same,Activity,Mus musculus [28],Active
same,Activity,Mus musculus [29],Active
same,Activity,[11],Toxic
same,Activity,[14],Toxic
same,Activity,[30],Toxic
same,Activity,[15],Toxic
same,Activity,[16],Non-Toxic
same,Activity,[19],Toxic
same,Activity,[21],Toxic
same,Activity,[31],Toxic

# Reference: ChEMBL document CHEMBL5113440, “Optimization of clofibrate with O-desmethyl anetholtrithione lead to a novel hypolipidemia compound with hepatoprotective effect” (Bioorg Med Chem Lett, 2022)
